The source made the active and inactive calls.
Assays:
[1] = target: T1, High affinity choline transporter 1 (Homo sapiens, UniProt Q9GZV3); assay: inhibitors of CHT choline uptake, dose response, cell-based, 3H-choline uptake, CHT LV-AA trafficking mutant, CRC (AID 602208); assay type: functional
T1 sequence (Q9GZV3 whole entry): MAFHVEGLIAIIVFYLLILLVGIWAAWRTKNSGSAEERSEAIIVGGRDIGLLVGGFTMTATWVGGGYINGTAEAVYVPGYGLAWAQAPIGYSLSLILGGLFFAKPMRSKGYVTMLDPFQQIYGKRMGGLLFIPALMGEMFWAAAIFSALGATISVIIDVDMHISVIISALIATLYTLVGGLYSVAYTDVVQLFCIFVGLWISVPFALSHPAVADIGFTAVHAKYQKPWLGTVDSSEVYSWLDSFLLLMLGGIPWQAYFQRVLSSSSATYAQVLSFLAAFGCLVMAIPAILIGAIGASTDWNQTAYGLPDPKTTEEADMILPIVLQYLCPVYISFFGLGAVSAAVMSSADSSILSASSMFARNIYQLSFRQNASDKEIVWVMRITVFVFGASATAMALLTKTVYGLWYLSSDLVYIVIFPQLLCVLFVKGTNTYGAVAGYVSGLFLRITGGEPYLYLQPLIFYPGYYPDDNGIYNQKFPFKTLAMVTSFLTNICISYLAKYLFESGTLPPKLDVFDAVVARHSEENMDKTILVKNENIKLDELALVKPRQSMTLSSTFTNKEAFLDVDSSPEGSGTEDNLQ

[2] = target: T1, High affinity choline transporter 1; assay: CHT inhibitors, dose response, cell-based, 10-point CRC, membrane potential dye (AID 588401); assay type: functional;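 further: membrane potential dye fluorescence of choline-evoked depolarization via CHT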
[3] = target: T1, High affinity choline transporter 1; assay: CHT inhibitors, dose response, cell-based, 5-point CRC, membrane potential dye (AID 504840); assay type: functional
Interleukin-8 [4] = target: T2, Interleukin-8 (Homo sapiens, UniProt P10145); assay: Dose Response confirmation of uHTS small molecule hits for cystic fibrosis induced NFkb Inhibitors in a PAF-induced IL8 counterscreen.; assay type: functional; details: read-out: IC50_Mean
T2 sequence (P10145 whole entry): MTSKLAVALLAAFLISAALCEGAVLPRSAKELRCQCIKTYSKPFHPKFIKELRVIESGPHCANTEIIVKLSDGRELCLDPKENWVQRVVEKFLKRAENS

Interleukin-8 [5] = target: T2, Interleukin-8; assay: Dose Response confirmation of uHTS small molecule hits for cystic fibrosis induced NFkb Inhibitors in a TNFa-induced IL8 counterscreen.; assay type: functional; details: read-out: IC50_Mean
[6] = target: DNA repair and recombination protein RAD54-like (Homo sapiens, UniProt Q92698); assay: inhibitors of human RAD54 branch migration, confirmation, biochemical, fluorescence, cherry-picked samples, dose series (AID 651657); assay type: functional
DNA repair and recombination protein RAD54-like, sequence (Q92698 whole entry, the tested form may be a part): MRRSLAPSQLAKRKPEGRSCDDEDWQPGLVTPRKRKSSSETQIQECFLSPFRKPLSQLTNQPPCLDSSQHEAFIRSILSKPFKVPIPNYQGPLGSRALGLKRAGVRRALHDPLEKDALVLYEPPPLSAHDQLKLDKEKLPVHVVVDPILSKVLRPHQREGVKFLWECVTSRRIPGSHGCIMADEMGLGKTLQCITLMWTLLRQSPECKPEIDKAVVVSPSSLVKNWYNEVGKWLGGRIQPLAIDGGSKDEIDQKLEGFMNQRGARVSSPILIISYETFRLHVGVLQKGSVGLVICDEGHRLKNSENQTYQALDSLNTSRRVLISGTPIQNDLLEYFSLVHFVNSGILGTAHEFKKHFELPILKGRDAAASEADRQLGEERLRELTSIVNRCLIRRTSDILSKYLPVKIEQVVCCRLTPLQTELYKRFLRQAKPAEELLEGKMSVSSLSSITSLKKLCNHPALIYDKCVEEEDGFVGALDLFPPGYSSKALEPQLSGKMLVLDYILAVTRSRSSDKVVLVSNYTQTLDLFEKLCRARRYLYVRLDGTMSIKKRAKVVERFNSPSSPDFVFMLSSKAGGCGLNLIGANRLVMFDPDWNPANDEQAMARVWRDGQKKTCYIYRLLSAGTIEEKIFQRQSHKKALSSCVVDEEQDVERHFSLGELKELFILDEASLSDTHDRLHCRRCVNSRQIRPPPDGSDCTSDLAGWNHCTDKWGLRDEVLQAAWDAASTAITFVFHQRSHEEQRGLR

[7] = ARNT/TACC3 interaction disruptors, potency, confirmation, biochemical, AlphaScreen, cherry-picked samples (AID 651703); assay type: functional, Homo sapiens;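 further: His-tagged ARNT PAS-B domain paired with GST-TACC3 E629A dimer coactivator fragment; potency of inhibitors that break up the complex and lower AlphaScreen signal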
[8] = target: T3, ATP-dependent translocase ABCB1 (Homo sapiens, UniProt P08183); assay: ABCG2 efflux pump inhibitor potency, dose response, Ig-MXP3 cells, JC-1, flow cytometry, set 2 (AID 504566); assay type: functional; details: read-out: EC50_MICROM_;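 further: flow cytometry median green fluorescence of retained JC-1 dye; potency of efflux pump inhibition measured as rising substrate retention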
T3 sequence (P08183 whole entry): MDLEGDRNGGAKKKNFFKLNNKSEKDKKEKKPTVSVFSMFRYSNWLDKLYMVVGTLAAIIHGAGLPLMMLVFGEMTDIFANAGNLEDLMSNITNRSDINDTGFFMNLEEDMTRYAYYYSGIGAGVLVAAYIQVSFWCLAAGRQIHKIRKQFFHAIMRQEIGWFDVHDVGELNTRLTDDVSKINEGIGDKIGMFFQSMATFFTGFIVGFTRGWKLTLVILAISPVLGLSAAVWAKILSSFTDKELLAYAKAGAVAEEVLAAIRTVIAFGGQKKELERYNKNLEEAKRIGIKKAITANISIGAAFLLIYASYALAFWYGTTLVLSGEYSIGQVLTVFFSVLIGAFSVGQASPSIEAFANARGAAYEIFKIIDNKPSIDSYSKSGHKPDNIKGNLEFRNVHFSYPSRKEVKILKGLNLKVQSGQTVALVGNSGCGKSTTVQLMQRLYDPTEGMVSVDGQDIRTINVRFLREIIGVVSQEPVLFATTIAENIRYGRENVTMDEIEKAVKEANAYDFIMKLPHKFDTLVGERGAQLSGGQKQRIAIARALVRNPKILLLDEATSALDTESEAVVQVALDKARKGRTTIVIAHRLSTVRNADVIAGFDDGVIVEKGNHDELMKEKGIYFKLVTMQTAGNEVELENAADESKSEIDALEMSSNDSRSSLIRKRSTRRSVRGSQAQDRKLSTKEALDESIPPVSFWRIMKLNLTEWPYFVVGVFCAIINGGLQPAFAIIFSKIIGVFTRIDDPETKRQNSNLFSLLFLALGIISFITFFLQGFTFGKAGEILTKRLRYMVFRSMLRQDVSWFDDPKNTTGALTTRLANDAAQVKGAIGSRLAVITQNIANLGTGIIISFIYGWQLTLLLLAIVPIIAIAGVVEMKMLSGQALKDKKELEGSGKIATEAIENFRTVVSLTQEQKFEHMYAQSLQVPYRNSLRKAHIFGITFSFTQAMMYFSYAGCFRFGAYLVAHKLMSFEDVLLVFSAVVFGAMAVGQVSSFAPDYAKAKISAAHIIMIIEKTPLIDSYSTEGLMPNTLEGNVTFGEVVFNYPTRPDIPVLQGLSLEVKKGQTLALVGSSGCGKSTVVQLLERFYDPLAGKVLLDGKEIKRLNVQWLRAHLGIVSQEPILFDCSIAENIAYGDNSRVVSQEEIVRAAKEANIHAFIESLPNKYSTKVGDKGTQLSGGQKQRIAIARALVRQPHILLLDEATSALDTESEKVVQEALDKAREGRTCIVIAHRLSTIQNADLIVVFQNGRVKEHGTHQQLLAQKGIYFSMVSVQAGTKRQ

[9] = target: T3, ATP-dependent translocase ABCB1; assay: ABCB1 efflux inhibitor potency, dose response, Jurkat-DNR cells, JC-1, flow cytometry, set 2 (AID 504569); assay type: functional; details: read-out: EC50_MICROM_;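 further: potency of pump inhibitors that raise cellular JC-1 green fluorescence up to the nicardipine level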
[10] = target: T4, Calpain-2 catalytic subunit (Sus scrofa, UniProt P43367); assay: pig calpain II inhibitor potency, dose response, biochemical, fluorogenic peptide substrate (AID 1420); assay type: functional
T4 sequence (P43367 whole entry): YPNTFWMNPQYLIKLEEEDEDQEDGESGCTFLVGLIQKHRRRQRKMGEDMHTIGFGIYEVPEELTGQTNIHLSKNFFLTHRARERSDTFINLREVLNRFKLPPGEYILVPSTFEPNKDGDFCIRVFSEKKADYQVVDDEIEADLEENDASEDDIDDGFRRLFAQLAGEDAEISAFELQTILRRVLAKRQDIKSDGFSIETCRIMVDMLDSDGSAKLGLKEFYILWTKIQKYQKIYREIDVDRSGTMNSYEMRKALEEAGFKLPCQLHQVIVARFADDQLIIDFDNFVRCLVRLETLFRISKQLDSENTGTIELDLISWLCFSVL

[11] = target: Mitochondrial peptide methionine sulfoxide reductase (Bos taurus, UniProt P54149); assay type: functional;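 further: absorbance read-out, biochemical high-throughput dose-response screen for MsrA inhibitors, confirmatory; recombinant bovine MsrA coupled to E. coli TrxB with NADPH and selenocystamine; potency is for inhibitors of MsrA activity on DMSO substrate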
Mitochondrial peptide methionine sulfoxide reductase, sequence (P54149 whole entry): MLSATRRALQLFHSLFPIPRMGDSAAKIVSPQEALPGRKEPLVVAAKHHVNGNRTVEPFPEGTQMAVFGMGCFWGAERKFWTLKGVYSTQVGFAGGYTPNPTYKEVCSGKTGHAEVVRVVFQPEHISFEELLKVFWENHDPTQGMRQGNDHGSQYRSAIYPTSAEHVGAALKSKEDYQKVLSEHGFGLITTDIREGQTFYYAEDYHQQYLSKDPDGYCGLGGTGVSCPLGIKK

Q: Which IC50 [1] does the source give for O=C(Nc1ccc(S(=O)(=O)NC2=NCCCCC2)cc1)c1ccc(Cl)cc1Cl here?
A: 0.864 µM (active)

Q: What about the IC50 [2] of the same compound?
A: 4.47 µM (active)

Q: What about the IC50 [3] of the same compound?
A: 7.42 µM (active)

Q: What does the source list for Brc1ccc2ncnc(NCc3cccnc3)c2c1?
A: IC50 (Interleukin-8 [4]): 4.61 µM (active); IC50 (Interleukin-8 [5]): 1.77 µM (active)

Q: With CN(C)CCN(C(=O)c1ccc2c(c1)OCCO2)c1nc2c(Cl)cccc2s1 as the compound, how does the AC50 [6] read?
A: 55.1 µM (active)

Q: For NC(=O)c1[nH]cnc1N, which AC50 [7] is on record?
A: 90.5 µM (active)

Q: Which EC50 [8] does the source give for COc1cccc(-c2cc3nc(-c4ccccc4)cc(N4CCN(C(=O)c5ccco5)CC4)n3n2)c1 here?
A: 1.17 µM (active)

Q: And the EC50 [9]?
A: 4.32 µM (active)

Q: Which IC50 [10] does the source give for CCOC(=O)C(C)/C(C)=N\Nc1ccc([N+](=O)[O-])cc1[N+](=O)[O-] (stereo unspecified) here?
A: > 50 µM (not active)

Q: What about the IC50 [11] of the same compound?
A: 155 µM (inactive)
